Literature values in patent US20090208944A1 (priority 2005, published 2009).

Target: CYP2D6 enzyme system (Homo sapiens, UniProt P10635)
Settings: classification from literature

Chain of CYP2D6 enzyme system (P10635 whole entry): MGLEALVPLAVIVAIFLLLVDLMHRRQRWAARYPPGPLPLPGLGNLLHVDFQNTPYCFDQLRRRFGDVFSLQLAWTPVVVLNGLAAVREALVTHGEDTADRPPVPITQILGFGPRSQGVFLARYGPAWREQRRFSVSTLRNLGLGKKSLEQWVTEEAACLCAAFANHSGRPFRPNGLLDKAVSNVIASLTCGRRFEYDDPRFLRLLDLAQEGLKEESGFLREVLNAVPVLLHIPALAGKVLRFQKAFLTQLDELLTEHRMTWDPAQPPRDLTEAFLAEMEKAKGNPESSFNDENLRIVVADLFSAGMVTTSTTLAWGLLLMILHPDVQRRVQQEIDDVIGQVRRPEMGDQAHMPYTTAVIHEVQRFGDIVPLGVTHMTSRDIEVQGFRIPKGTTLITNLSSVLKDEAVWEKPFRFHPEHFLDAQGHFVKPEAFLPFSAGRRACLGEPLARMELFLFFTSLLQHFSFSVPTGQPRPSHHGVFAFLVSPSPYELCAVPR

Row | SMILES | potency as inhibitor of the CYP2D6 enzyme system
1 | CN/C(=N/CCSCc1nc[nH]c1C)NC#N [cimetidine] | Moderate
2 | CN(C)CCC=C1c2ccccc2COc2ccccc21 [doxepin] | Moderate
3 | O=C(CCCN1CCC(O)(c2ccc(Cl)cc2)CC1)c1ccc(F)cc1 [haloperidol] | Moderate

Results, then the compound that gave them:

Row | potency as inhibitor of the CYP2D6 enzyme system | SMILES
4 | Potent | Fc1ccc([C@@H]2CCNC[C@H]2COc2ccc3c(c2)OCO3)cc1 [paroxetine]
5 | Moderate | CN[C@H]1CC[C@@H](c2ccc(Cl)c(Cl)c2)c2ccccc21 [sertraline]
